≈ marks a conversion by molar mass, not a printed value. Where two headings read alike, the source gives them in different places.
What was measured:
MK2 enzyme = target: T1, MK2 enzyme (Homo sapiens, UniProt P49137); experiment: MK2 enzyme activity, IMAP fluorescence polarization assay; format: biochemical; details: MK2 IMAP assay
T1 construct: MK2 enzyme (active enzyme (peptide 46-end (Millipore))); purchased Millipore
Summary of the method: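 Enzyme kept in KR buffer (10 mM Tris-HCl, 10 mM MgCl2, 0.01% Tween-20, 2 mM DTT, pH 7.2) and acting on a fluorescein-labeled peptide substrate; final compound range 10 μM to 0.316 nM. After 60 min at room temperature, FP at 535 nm was read. Signal as percent of the with/without-ATP control difference, and EC50 by curve fit.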

[1] = Solubility determination of MK2 inhibitors (kinetic aqueous solubility, UPLC); format: physicochemical; details: aqueous buffer (system solution from pION inc.), 22 °C, pH 7.4, aqueous buffer, kinetic from dmso stock
Summary of the method: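 Kinetic shake-flask solubility (mg/L) at pH 7.4, room temperature (21-23° C.), 1% final DMSO from 10 mM DMSO stock, duplicates. Shaken 24 h, filtered (0.45 um), 1-propanol added to filtrate; dissolved compound quantified by UPLC-UV against external DMSO calibration line of the same compound.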

[2] = 1 μM ATP, 30 min pre-incubation, 2 h room temperature, read-out: pEC50 value (converted)
[3] = pH 7.4, room temperature, about 1% DMSO, 24 h shaking, read-out: solubility
[4] = Table 1, comparison compound of Formula (XV) without spiro ring, read-out: pEC50, Formula (XV) (converted)
[5] = Table 1, comparison compound of Formula (XV) without spiro ring, pH 7.4, read-out: Solubility pH 7.4 (mg/L), Formula (XV)
[6] = Table 2, compound of Formula (I) with amine-containing spiro ring
[7] = Table 2, compound of Formula (I) with amine-containing spiro ring, pH 7.4, read-out: Solubility pH 7.4 (mg/L), Formula (I)
[8] = Table 1, compound of Formula (I) with spiro ring, read-out: pEC50, Formula (I) (converted)
[9] = Table 1, compound of Formula (I) with spiro ring, pH 7.4, read-out: Solubility pH 7.4 (mg/L), Formula (I)

T1 sequence (P49137 46-400 limits assumed): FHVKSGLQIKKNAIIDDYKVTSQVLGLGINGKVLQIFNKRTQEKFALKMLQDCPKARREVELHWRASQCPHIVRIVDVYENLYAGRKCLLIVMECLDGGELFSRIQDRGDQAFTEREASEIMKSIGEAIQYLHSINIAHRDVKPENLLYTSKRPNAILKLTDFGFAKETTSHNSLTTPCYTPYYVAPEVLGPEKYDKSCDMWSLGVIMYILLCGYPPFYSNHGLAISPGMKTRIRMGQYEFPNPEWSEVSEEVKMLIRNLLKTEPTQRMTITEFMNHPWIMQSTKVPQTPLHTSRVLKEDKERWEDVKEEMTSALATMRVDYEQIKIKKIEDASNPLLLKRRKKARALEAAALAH

SMILES: O=C1NCC2(CCNCC2)c2[nH]c(-c3ccnc(-c4ccc(C(F)(F)F)c(Cl)c4)n3)cc21 [1—10, 2′-(2-(3-chloro-4-(trifluoromethyl)phenyl)pyrimidin-4-yl)-5′,6′-dihydrospiro[piperidine-4,7′-pyrrolo[3,2-c]pyridin]-4′(1′H)-one]
- EC50 (MK2 enzyme; [2]): 0.00316 to 0.0316 µM
- solubility at 24 h [1, 3]: ≥ 50 mg/L

SMILES: O=C1NCC2(CCNC2)c2[nH]c(-c3ccnc(-c4cccc(F)c4)n3)cc21 (centres unmarked) [6—4, 2′-(2-(3-fluorophenyl)pyrimidin-4-yl)-5′,6′-dihydrospiro[pyrrolidine-3,7′-pyrrolo[3,2-c]pyridin]-4′(1′H)-one]
- EC50 (MK2 enzyme; [2]): 0.00316 to 0.0316 µM
- solubility at 24 h [1, 3]: 20 to 50 mg/L (≈ 55 to 138 µM)

SMILES: O=C1NCCc2[nH]c(-c3ccnc(-c4cc5ccccc5o4)n3)cc21 [16_6 Formula (XV)]
- EC50 (MK2 enzyme; [4]): 0.0501 µM
- solubility at 24 h [1, 5]: 2 mg/L

SMILES: O=C1NCC2(CCNCC2)c2[nH]c(-c3ccnc(-c4cnc5ccccc5c4)n3)cc21 [17_2 Formula (I)]
- pEC50, Formula (I) (MK2 enzyme; [6]): 8.2
- solubility at 24 h [1, 7]: 23 mg/L

SMILES: O=C1NCC2(CCNCC2)c2[nH]c(-c3ccnc(-c4ccc(C5CCCCC5)cc4)n3)cc21 [1—18, 2′-(2-(4-cyclohexylphenyl)pyrimidin-4-yl)-5′,6′-dihydrospiro[piperidine-4,7′-pyrrolo[3,2-c]pyridin]-4′(1′H)-one]
- EC50 (MK2 enzyme; [2]): 0.0316 to 0.316 µM
- solubility at 24 h [1, 3]: 20 to 50 mg/L (≈ 45.3 to 113 µM)

SMILES: O=C1NCC2(CCNCC2)c2[nH]c(-c3ccnc(-c4cnc5ccccc5c4)c3)cc21 [8—2, 2′-(2-(quinolin-3-yl)pyridin-4-yl)-5′,6′-dihydrospiro[piperidine-4,7′-pyrrolo[3,2-c]pyridin]-4′(1′H)-one]
- EC50 (MK2 enzyme; [2]): ≤ 0.00316 µM
- solubility at 24 h [1, 3]: 20 to 50 mg/L (≈ 48.8 to 122 µM)

SMILES: O=C1NCC2(CCNCC2)c2[nH]c(-c3ccnc(-c4cnc5ccccc5c4)c3)cc21 [16_1 Formula (I)]
- EC50 (MK2 enzyme; [8]): 0.00126 µM
- solubility at 24 h [1, 9]: 35 mg/L

SMILES: O=C1NCC2(CCNCC2)c2[nH]c(-c3ccnc(-c4cnc5ccccc5c4)n3)cc21 [1—21, 2′-(2-(quinolin-3-yl)pyrimidin-4-yl)-5′,6′-dihydrospiro[piperidine-4,7′-pyrrolo[3,2-c]pyridin]-4′(1′H)-one]
- EC50 (MK2 enzyme; [2]): 0.00316 to 0.0316 µM
- solubility at 24 h [1, 3]: 20 to 50 mg/L (≈ 48.7 to 122 µM)

SMILES: O=C1NCC2(CCNCC2)c2[nH]c(-c3ccnc(-c4ccc5c(c4)OCO5)n3)cc21 [1—7, 2′-(2-(benzo[d][1,3]dioxol-5-yl)pyrimidin-4-yl)-5′,6′-dihydrospiro[piperidine-4,7′-pyrrolo[3,2-c]pyridin]-4′(1′H)-one]
- EC50 (MK2 enzyme; [2]): 0.00316 to 0.0316 µM
- solubility at 24 h [1, 3]: 20 to 50 mg/L (≈ 49.6 to 124 µM)

SMILES: CC(C)Cc1ccc(-c2nccc(-c3cc4c([nH]3)C3(CCNCC3)CNC4=O)n2)cc1 [1—23, 2′-(2-(4-isobutylphenyl)pyrimidin-4-yl)-5′,6′-dihydrospiro[piperidine-4,7′-pyrrolo[3,2-c]pyridin]-4′(1′H)-one]
- EC50 (MK2 enzyme; [2]): 0.00316 to 0.0316 µM
- solubility at 24 h [1, 3]: ≥ 50 mg/L

SMILES: O=C1NCC2(CCNCC2)c2[nH]c(-c3ccnc(-c4cccc(F)c4)n3)cc21 [1—5, 2′-(2-(3-fluorophenyl)pyrimidin-4-yl)-5′,6′-dihydrospiro[piperidine-4,7′-pyrrolo[3,2-c]pyridin]-4′(1′H)-one]
- EC50 (MK2 enzyme; [2]): 0.00316 to 0.0316 µM
- solubility at 24 h [1, 3]: 20 to 50 mg/L (≈ 53 to 132 µM)

SMILES: O=C1NCC2(CCNCC2)c2[nH]c(-c3ccnc(-c4ccc5oc6ccccc6c5c4)n3)cc21 [1—26, 2′-(2-(dibenzo[b,d]furan-2-yl)pyrimidin-4-yl)-5′,6′-dihydrospiro[piperidine-4,7′-pyrrolo[3,2-c]pyridin]-4′(1′H)-one]
- EC50 (MK2 enzyme; [2]): 0.0316 to 0.316 µM
- solubility at 24 h [1, 3]: 20 to 50 mg/L (≈ 44.5 to 111 µM)

SMILES: O=C1NCC2(CCNC2)c2[nH]c(-c3ccnc(-c4cnc5ccccc5c4)n3)cc21 (centres unmarked) [17_3 Formula (I)]
- EC50 (MK2 enzyme; Table 2, compound of Formula (I) with amine-containing spiro ring, read-out: pEC50, Formula (I) (converted)): 0.00251 µM
- solubility at 24 h [1, 7]: 37 mg/L

SMILES: Cc1cc(-c2nccc(-c3cc4c([nH]3)C3(CCNCC3)CNC4=O)n2)cc(C(C)(C)C)c1 [1—19, 2′-(2-(3-tert-butyl-5-methylphenyl)pyrimidin-4-yl)-5′,6′-dihydrospiro[piperidine-4,7′-pyrrolo[3,2-c]pyridin]-4′(1′H)-one]
- EC50 (MK2 enzyme; [2]): 0.0316 to 0.316 µM
- solubility at 24 h [1, 3]: ≥ 50 mg/L

SMILES: COc1cncc(-c2nccc(-c3cc4c([nH]3)C3(CCNCC3)CNC4=O)n2)c1 [1—3, 2′-(2-(5-methoxypyridin-3-yl)pyrimidin-4-yl)-5′,6′-dihydrospiro[piperidine-4,7′-pyrrolo[3,2-c]pyridin]-4′(1′H)-one]
- EC50 (MK2 enzyme; [2]): 0.00316 to 0.0316 µM
- solubility at 24 h [1, 3]: 20 to 50 mg/L (≈ 51.2 to 128 µM)

SMILES: O=C1NCC2(CCNCC2)c2[nH]c(-c3ccnc(-c4ccc(Cl)c(Cl)c4)n3)cc21 [Example 1—13, 2′-(2-(3,4-dichlorophenyl)pyrimidin-4-yl)-5′,6′-dihydrospiro[piperidine-4,7′-pyrrolo[3,2-c]pyridin]-4′(1′H)-one]
- EC50 (MK2 enzyme; [2]): 0.00316 to 0.0316 µM
- solubility at 24 h [1, 3]: ≥ 50 mg/L

SMILES: O=C1NCC2(CCNCC2)c2[nH]c(-c3nc(-c4ccc5c(c4)OCO5)ncc3F)cc21 [4—2, 2′-(2-(benzo[d][1,3]dioxol-5-yl)-5-fluoropyrimidin-4-yl)-5′,6′-dihydrospiro[piperidine-4,7′-pyrrolo[3,2-c]pyridin]-4′(1′H)-one]
- EC50 (MK2 enzyme; [2]): 0.00316 to 0.0316 µM
- solubility at 24 h [1, 3]: 20 to 50 mg/L (≈ 47.5 to 119 µM)

SMILES: O=C1NCCc2[nH]c(-c3ccnc(-c4ccccc4F)n3)cc21 [16_4 Formula (XV)]
- EC50 (MK2 enzyme; [4]): 1 µM
- solubility at 24 h [1, 5]: 44 mg/L

SMILES: O=C1NCC2(CCNCC2)c2[nH]c(-c3ccnc(-c4ccc5c(c4)OCO5)n3)cc21 [17_1 Formula (I)]
- pEC50, Formula (I) (MK2 enzyme; [6]): 8.4
- solubility at 24 h [1, 7]: 37 mg/L

SMILES: O=C1NCC2(CCNCC2)c2[nH]c(-c3ccnc(-c4cnc5ccccc5c4)n3)cc21 [16_2 Formula (I)]
- pEC50, Formula (I) (MK2 enzyme; Table 1, compound of Formula (I) with spiro ring): 8.2
- solubility at 24 h [1, 9]: 23 mg/L

SMILES: O=C1NCC2(CCNCC2)c2[nH]c(-c3ccnc(-c4cccc(F)c4)n3)cc21 [16_3 Formula (I)]
- EC50 (MK2 enzyme; [8]): 0.00794 µM
- solubility at 24 h [1, 9]: 36 mg/L

SMILES: COc1cc(-c2nccc(-c3cc4c([nH]3)C3(CCNCC3)CNC4=O)n2)ccc1O [1—20, 2′-(2-(4-hydroxy-3-methoxyphenyl)pyrimidin-4-yl)-5′,6′-dihydrospiro[piperidine-4,7′-pyrrolo[3,2-c]pyridin]-4′(1′H)-one]
- EC50 (MK2 enzyme; [2]): 0.0316 to 0.316 µM
- solubility at 24 h [1, 3]: ≥ 50 mg/L

— patent US8772286B2, “MK2 inhibitors” (Merck Sharp & Dohme B.V., priority 2009, dated 2014)
